Consider 1 compound from patent US11779628B2, “Use of cell-permeable peptide inhibitors of the JNK signal transduction pathway for the treatment of various diseases” (Xigen Inflammation Ltd., priority 2014, dated 2023).

For the data set, the system named is Hep G2 human hepatocarcinoma tumor. Description: Orthotopic HEP G2 human liver carcinoma, dose/response. In kind it is in vivo, mice. The conditions noted are these: 0.1, 1, 5 mg/kg/inj IV, Q4Dx4. As to the method: The objective of this study was to determine the antitumor activity of XG-102 (dose/response) in the model of SWISS Nude mice bearing the orthotopic Hep G2 human hepatocarcinoma tumor.
For XG-102 administration XG-102 was prepared at the concentration of 1 mg/ml with sterile water (WFI, Aguettant, France). Lt was then cliluted at the concentrations of 0.2 and 0.02 mg/ml with sterile water. All these steps were performed within one hour prior to injection to mice. XG-102 was injected at 0.1, 1 and 5 mg/kg/inj. Four injections were performed, each separated by four days (Q4Dx4).
Twenty four hours before tumor induction, 32 female SWISS Nude mice were irradiated with a γ-source (2.5 Gy, Co^60, INRA, Dijon, France). […]
Mice were monitored every day throughout the study for behaviour and survival. The body weight was monitored twice a week for all mice throughout the study. […]
At D67, 3 mice randomly selected per group during randomization were sacrificed for observation of macroscopic development. […] Histological sections were analyzed by a pathologist expert to determine the metastatic invasion in liver.
For the body weight analysis body weight curves of mice were drawn. Mean body weight change (MBWC): Average weight change of treated animals in grams (weight at day X minus weight at D10) was calculated.
Efficacy parameters were expressed as a percent (T/C %). […]

Turning to `CC(C)C[C@@H](NC(=O)[C@@H](Cc1ccccc1)NC(=O)[C@H]1CCCN1C(=O)[C@@H](CCC(N)=O)NC(=O)[C@H](NC(=O)[C@H]1CCCN1C(=O)[C@@H](CCCNC(=N)N)NC(=O)[C@@H](CO)NC(=O)[C@@H](CCC(N)=O)NC(=O)[C@H](N)CC(=O)O)C(C)C)C(=O)N[C@H](CC(N)=O)C(=O)N[C@H](CC(C)C)C(=O)N[C@@H](C(=O)N[C@@H](C(=O)N1CCC[C@@H]1C(=O)N[C@H](CCCNC(=N)N)C(=O)N[C@H](CCCCN)C(=O)N1CCC[C@@H]1C(=O)N[C@H](CCCNC(=N)N)C(=O)N1CCC[C@@H]1C(=O)N1CCC[C@@H]1C(=O)N[C@H](CCCNC(=N)N)C(=O)N[C@H](CCCNC(=N)N)C(=O)N[C@H](CCCNC(=N)N)C(=O)N[C@H](CCC(N)=O)C(=O)N[C@H](CCCNC(=N)N)C(=O)N[C@H](CCCNC(=N)N)C(=O)N[C@H](CCCCN)C(=O)N[C@H](CCCCN)C(=O)N[C@H](CCCNC(=N)N)C(=O)NCC(=O)O)[C@H](C)O)[C@H](C)O` [XG-102], the body weight result is reported as “no apparent differences occurred for the body weight”.
